Test results taken from paper PMC7762786, “The discovery of novel antitrypanosomal 4-phenyl-6-(pyridin-3-yl)pyrimidines” (European Journal of Medicinal Chemistry, 2021).

What was measured:
rhodesain [1] = biological target: T1, rhodesain (Trypanosoma brucei rhodesiense, UniProt Q95PM0); experiment: In vitro rhodesain enzyme assay (Cbz-Phe-Arg-AMC substrate); assay type: biochemical; conditions: compound at 50 μM; Cbz-Phe-Arg-AMC substrate 10, 5 and 1.25 μM; read-out: inhibition of rhodesain enzymatic activity
Protocol: Enzyme assays with rhodesain were performed as described previously [[36], [37], [38]]. The assay buffer consisted of 50 mM sodium acetate (pH 5.5), 5 mM EDTA, 200 mM NaCl and 0.005% Brij35. The enzyme buffer consisted of 50 mM sodium acetate (pH 5.5), 5 mM EDTA, 200 mM NaCl and 2 mM DTT. The substrate Cbz-Phe-Arg-AMC (Bachem, purchased as HCl salt) was diluted from a 1 mM stock solution to reach concentrations of 10, 5 and 1.25 μM. […] Inhibition against rhodesain was measured using Cbz-Phe-Arg-AMC as the substrate, which releases AMC (7-amino-4-methylcoumarin) after amide bond cleavage by the enzyme. Proteolytic activity of the enzyme was monitored spectrophotometrically by the increase of fluorescence intensity by release of AMC (emission at 460 nm) upon hydrolysis.

rhodesain [2] = biological target: T1, rhodesain; experiment: STD and WaterLOGSY NMR protein-ligand interaction; assay type: binding; conditions: rhodesain 50 μM, compound 5 mM, 25 °C; corroborated by WaterLOGSY
Excerpt: In order to support the outcome observed from docking studies, protein-ligand interactions were probed via Saturation Transfer Difference (STD) and WaterLOGSY experiments. STD is an NMR technique where the protein is selectively saturated and, if the ligand is binding to the protein in the timescale of the experiment, the saturation gets transferred to the ligand via intermolecular NOE and only then it is possible to observe an NMR signal. WaterLOGSY relies on the detection of the intermolecular NOE between water (which is selectively irradiated) and the ligand. The sign of the NOE depends on the rotational correlation time of the molecule, thus large molecules such as proteins, have an opposite NOE sign than small molecules such as the pyrimidines investigated. If the pyrimidines bind to the protein, their rotational correlation time changes and the sign of the signals in the WaterLOGSY experiment will be opposite than in the absence of a binding protein. […] The WaterLOGSY results, which as expected is generally a more sensitive technique, further corroborate our findings. […]
All NMR studies were performed at 25 °C on a JEOL ECZ-R 600 MHz spectrometer equipped with a ROYAL room temperature probe. […] The spectra were processed and analysed using JEOL Delta software. […]

CYP2D6 = biological target: T2, CYP2D6 (Homo sapiens, UniProt P10635); experiment: Cytochrome P450 inhibition assay (P450-Glo); assay type: in vitro ADME; conditions: 10 μM, result in words
T2 construct: purchased Corning; host or cells: baculovirus infected insect cells (BTI-TN-5B1-4)
Protocol: (§1) Cytotoxicity was also determined against 786-O and A549 cells.
(§2) Experiments for determining pre-clinical in vitro ADME-Tox activities were performed as described by Moraes et al. and also described in the following sections 4.3.2.1 to 4.3.2.4.
(§3) The luminescence based P450-Glo™ (Promega Corp.) assay was used in 384-well assay format.
(§4) The cytochrome P450 (CYP) panel included microsomal preparations of cytochromes P450 1A2, 2C9, 2C19, 2D6, and 3A4 (Corning) from baculovirus infected insect cells (BTI-TN-5B1−4) which express cytochromes P450 and cytochrome c reductase (and cytochrome b5 for 3A4). Compounds were added (100 nL/well in 1% DMSO v/v) using the Echo 550® Liquid Handler followed by addition of 5 μL/well of CYP450/substrate mixture. Following incubation for 30 min at 37 °C, the reaction was initiated by the addition of 5 μL/well of the NADPH regeneration mixture. By the end of a further 30 min incubation (37 °C), the CYP450 reaction was stopped and the luciferase reaction was initiated by the addition of 10 μL/well of the luciferin detection reagent, followed by an additional 30 min of incubation at 37 °C. The luminescence signal was detected using an Infinite® M1000 PRO plate reader. […] The raw data were normalised relative to the positive and negative controls yielding the % inhibition for each compound.

CYP1A2 = biological target: T3, CYP1A2 (Homo sapiens, UniProt P05177); experiment: Cytochrome P450 inhibition assay (P450-Glo); assay type: in vitro ADME; conditions: 10 μM, result in words
T3 construct: purchased Corning; host or cells: baculovirus infected insect cells (BTI-TN-5B1-4)
T3 sequence (P05177 2-516 limits assumed): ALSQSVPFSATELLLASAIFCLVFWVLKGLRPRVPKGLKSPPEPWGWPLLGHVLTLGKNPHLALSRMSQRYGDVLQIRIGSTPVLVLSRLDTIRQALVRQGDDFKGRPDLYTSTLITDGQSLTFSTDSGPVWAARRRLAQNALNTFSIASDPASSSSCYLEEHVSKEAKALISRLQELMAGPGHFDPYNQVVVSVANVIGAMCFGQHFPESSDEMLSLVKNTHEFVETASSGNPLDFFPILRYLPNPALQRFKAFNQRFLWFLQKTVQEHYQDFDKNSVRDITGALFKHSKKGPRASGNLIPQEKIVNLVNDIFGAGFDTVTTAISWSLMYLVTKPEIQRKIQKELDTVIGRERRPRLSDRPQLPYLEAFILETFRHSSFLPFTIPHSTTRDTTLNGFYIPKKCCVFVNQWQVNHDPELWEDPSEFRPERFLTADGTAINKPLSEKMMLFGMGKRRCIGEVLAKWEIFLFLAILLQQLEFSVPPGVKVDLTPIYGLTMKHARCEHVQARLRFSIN
Protocol: as §1, §2, §3, §4

CYP2C9 = biological target: T4, CYP2C9 (Homo sapiens, UniProt P11712); experiment: Cytochrome P450 inhibition assay (P450-Glo); assay type: in vitro ADME; conditions: 10 μM, result in words
T4 construct: purchased Corning; host or cells: baculovirus infected insect cells (BTI-TN-5B1-4)
Protocol: as §1, §2, §3, §4

CYP3A4 = biological target: T5, CYP3A4 (Homo sapiens, UniProt P08684); experiment: Cytochrome P450 inhibition assay (P450-Glo); assay type: in vitro ADME; conditions: 10 μM, result in words
T5 construct: purchased Corning; host or cells: baculovirus infected insect cells (BTI-TN-5B1-4)
Protocol: as §1, §2, §3, §4

CYP2C19 = biological target: T6, CYP2C19 (Homo sapiens, UniProt P33261); experiment: Cytochrome P450 inhibition assay (P450-Glo); assay type: in vitro ADME; conditions: 10 μM, result in words
T6 construct: purchased Corning; host or cells: baculovirus infected insect cells (BTI-TN-5B1-4)
Protocol: as §1, §2, §3, §4

T1 sequence (Q95PM0 entry or part of it): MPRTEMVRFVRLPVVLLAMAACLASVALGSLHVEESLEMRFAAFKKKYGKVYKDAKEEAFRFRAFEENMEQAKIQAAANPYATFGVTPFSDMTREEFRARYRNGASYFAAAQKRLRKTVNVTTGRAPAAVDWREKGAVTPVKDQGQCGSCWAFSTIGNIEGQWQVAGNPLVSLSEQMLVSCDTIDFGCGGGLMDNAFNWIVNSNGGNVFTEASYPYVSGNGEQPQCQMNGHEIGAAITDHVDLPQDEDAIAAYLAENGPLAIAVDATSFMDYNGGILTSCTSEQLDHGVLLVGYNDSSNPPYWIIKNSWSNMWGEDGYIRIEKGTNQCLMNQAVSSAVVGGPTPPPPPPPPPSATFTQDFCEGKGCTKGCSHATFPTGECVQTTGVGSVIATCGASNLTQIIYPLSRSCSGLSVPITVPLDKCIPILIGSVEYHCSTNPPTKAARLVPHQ
T4 sequence (P11712 whole entry): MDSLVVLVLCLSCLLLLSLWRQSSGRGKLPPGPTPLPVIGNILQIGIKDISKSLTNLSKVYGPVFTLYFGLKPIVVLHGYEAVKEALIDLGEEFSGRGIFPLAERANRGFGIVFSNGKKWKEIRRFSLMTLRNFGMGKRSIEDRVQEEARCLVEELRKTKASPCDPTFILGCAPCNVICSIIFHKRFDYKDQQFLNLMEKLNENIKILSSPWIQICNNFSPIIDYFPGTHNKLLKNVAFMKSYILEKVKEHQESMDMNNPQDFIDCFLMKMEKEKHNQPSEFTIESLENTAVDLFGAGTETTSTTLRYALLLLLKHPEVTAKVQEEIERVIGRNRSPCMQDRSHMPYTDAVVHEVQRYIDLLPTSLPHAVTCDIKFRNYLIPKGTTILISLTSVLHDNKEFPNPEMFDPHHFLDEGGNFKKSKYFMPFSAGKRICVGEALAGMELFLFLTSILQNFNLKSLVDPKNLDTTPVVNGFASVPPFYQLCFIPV
T6 sequence (P33261 whole entry): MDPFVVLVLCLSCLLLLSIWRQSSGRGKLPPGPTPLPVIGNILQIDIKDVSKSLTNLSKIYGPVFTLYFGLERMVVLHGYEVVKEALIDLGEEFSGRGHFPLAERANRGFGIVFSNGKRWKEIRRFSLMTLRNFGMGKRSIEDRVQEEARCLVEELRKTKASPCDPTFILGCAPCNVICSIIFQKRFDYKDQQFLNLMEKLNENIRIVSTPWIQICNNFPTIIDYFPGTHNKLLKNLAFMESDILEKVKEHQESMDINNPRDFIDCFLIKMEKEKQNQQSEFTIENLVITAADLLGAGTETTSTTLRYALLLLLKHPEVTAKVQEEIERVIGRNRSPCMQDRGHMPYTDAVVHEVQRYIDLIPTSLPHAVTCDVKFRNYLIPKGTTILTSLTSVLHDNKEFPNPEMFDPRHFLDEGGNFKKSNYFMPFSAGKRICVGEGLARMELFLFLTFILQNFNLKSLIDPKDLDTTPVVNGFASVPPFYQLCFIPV
T5 sequence (P08684 2-503 limits assumed): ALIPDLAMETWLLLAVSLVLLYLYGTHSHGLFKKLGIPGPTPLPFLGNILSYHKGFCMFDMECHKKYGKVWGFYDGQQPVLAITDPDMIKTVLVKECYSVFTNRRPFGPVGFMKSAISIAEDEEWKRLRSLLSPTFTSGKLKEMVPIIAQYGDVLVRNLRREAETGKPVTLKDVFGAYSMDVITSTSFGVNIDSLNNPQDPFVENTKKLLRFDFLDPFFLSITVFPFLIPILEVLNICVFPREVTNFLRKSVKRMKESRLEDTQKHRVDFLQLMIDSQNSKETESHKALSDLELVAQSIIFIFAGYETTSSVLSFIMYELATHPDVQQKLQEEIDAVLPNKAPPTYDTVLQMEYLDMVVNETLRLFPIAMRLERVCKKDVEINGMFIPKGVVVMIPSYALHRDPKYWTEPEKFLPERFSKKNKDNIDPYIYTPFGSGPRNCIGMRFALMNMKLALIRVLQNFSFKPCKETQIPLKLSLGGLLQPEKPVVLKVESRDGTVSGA
T2 sequence (P10635 whole entry): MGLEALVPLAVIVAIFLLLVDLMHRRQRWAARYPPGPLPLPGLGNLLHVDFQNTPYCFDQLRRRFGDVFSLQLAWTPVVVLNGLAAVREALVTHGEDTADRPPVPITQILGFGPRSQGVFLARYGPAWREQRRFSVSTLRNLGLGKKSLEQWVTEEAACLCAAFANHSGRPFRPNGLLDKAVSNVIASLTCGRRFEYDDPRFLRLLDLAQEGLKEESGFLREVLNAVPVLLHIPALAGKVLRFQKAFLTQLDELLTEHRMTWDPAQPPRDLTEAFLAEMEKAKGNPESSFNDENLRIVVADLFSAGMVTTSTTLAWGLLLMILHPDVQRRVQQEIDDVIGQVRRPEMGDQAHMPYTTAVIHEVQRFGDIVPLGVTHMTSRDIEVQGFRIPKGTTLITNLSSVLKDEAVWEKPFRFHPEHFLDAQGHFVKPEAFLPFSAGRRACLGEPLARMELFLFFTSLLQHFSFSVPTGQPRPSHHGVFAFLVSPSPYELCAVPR

COc1ccccc1-c1cc(-c2cccnc2)nc(N)n1 [Compound 13, 4-(2-Methoxyphenyl)-6-(pyridin-3-yl)pyrimidin-2-amine]
inhibition at 50 µM (rhodesain [1]): ≤ 15%
binding to rhodesain by STD NMR (rhodesain [2]): confirming binding to rhodesain
CYP2D6 inhibition (CYP2D6): favourable results
CYP1A2 inhibition (CYP1A2): inhibitory activity
CYP2C9 inhibition (CYP2C9): some inhibition
CYP3A4 inhibition (CYP3A4): favourable results
CYP2C19 inhibition (CYP2C19): some inhibition
